Measured values reported in patent US20250262201A1, “COMPOUNDS AND METHODS USEFUL FOR STABILIZING PHENYLALANINE HYDROXYLASE MUTATIONS” (Agios Pharmaceuticals, Inc., priority 2022, published 2025).

biological target: T1, human PAH with the R408W mutation (Homo sapiens, UniProt P00439, R408W); assay: Cell Based Phenylalanine Flux Assay; parameters: scale not given here; settings: A375 R408W cells, 24 hrs with compound, then 20 μM sepiapterin and 800 μM 13C9,15N-Phenylalanine for 4 hours; 13C-Tyrosine by LC-MS; average where tested multiple times
T1 construct: expressed in transfected cells
T1 sequence (P00439 1-452 R408W): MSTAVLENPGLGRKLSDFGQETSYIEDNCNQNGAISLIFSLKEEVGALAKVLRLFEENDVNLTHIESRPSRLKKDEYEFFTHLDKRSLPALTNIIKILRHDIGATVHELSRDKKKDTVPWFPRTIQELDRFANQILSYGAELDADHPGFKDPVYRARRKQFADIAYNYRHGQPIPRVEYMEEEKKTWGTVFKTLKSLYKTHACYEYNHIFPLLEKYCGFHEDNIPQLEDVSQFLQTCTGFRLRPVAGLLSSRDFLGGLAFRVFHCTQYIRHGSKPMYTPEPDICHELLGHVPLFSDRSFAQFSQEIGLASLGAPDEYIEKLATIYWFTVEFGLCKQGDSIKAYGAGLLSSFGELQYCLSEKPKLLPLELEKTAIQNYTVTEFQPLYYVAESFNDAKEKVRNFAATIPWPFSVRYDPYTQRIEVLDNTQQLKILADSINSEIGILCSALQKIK

With Cc1nc(C(F)(F)F)c(C(=O)N2CCc3nc[nH]c3[C@@H]2c2cn3ccccc3n2)o1 (single isomer, unassigned) the AC50 was “E, E”.
For Cc1nc(C(F)(F)F)c(C(=O)N2CCc3nc[nH]c3[C@H]2c2cn3ccccc3n2)o1 (single isomer, unassigned), the AC50 was “E, E”.
In the case of Cn1ccc(-c2nc(C(F)F)c(C(=O)N3CCc4[nH]cnc4[C@H]3c3ncc4ccccc4n3)o2)n1 (single isomer, unassigned), the AC50 was “E, E”.
Cc1ncoc1C(=O)N1C[C@@H](C)c2[nH]cnc2[C@@H]1c1cc2ccccc2cn1 (single isomer, unassigned) was tested, and the AC50 was “E, E”.
In the case of C[C@H]1CN(C(=O)c2ocnc2C(F)(F)F)[C@@H](c2cc3ccccc3cn2)c2nc[nH]c21 (single isomer, unassigned), the AC50 was “E, E”.

same assay, conditions: A375 R408W cells, 24 hrs with compound, then 20 μM sepiapterin and 800 μM 13C9,15N-Phenylalanine for 4 hours; 13C-Tyrosine by LC-MS; average where tested multiple times; read-out: AC50

CC(C)(O)c1cc(C(=O)N2CCc3[nH]cnc3[C@H]2c2cc3ccccc3cn2)no1 and CC(C)(O)c1cc(C(=O)N2CCc3[nH]cnc3[C@H]2c2cc3ccccc3cn2)on1 fall in the same range of AC50: 1 to 5 µM for the first, 1 to 5 µM for the second.

O=C(c1nnc(CCN2CC(F)C2)o1)N1CCc2[nH]cnc2[C@H]1c1cc2ccccc2cn1 and CN1CCN(c2nnc(C(=O)N3CCc4[nH]cnc4[C@H]3c3cc4ccccc4cn3)o2)CC1 fall in the same range of AC50: 1 to 5 µM for the first, 1 to 5 µM for the second.

O=C(c1cnc(C2(O)CCC2)s1)N1CCc2[nH]cnc2C1c1cn2ccccc2n1 (stereo not drawn) and O=C(c1cnc(C2CC2)s1)N1CCc2[nH]cnc2C1c1cn2ccccc2n1 (stereo not drawn) [listing 1 of 2 here] fall in the same range of AC50: 1 to 5 µM for the first, 1 to 5 µM for the second.

First: CC(C)(F)c1ncc(C(=O)N2CCc3[nH]cnc3C2c2cn3ccccc3n2)o1 (stereo not drawn)
Second: CC(C)(O)c1ncc(C(=O)N2CCc3[nH]cnc3[C@H]2c2cn3ccccc3n2)o1 (single isomer, unassigned)
The AC50 of the first is lower: 1 to 5 µM for the first, > 5 µM for the second.

First: O=C(c1cnc(C2CC2)o1)N1CCc2[nH]cnc2C1c1cn2ccccc2n1 (stereo not drawn)
Second: O=C(c1cnc(C2CC2)s1)N1CCc2[nH]cnc2C1c1cn2ccccc2n1 (stereo not drawn) [listing 2 of 2 here]
The AC50 of the first is lower: 1 to 5 µM for the first, > 5 µM for the second.

O=C(N1CCc2[nH]cnc2C1c1cn2ccccc2n1)C(F)(F)C1(O)CCC1 (stereo not drawn) and O=C(C1CC1(F)F)N1CCc2[nH]cnc2C1c1cn2ccccc2n1 (stereo not drawn) [listing 1 of 3 here] fall in the same range of AC50: 1 to 5 µM for the first, 1 to 5 µM for the second.

COCc1ncc(C(=O)N2CCc3[nH]cnc3C2c2cn3ccccc3n2)o1 (stereo not drawn) and COCc1ncc(C(=O)N2CCc3[nH]cnc3[C@H]2c2cn3ccccc3n2)s1 (single isomer, unassigned) cannot be ordered by AC50: > 5 µM for the first, > 5 µM for the second.

O=C(c1cnc(C(F)(F)F)o1)N1CCc2[nH]cnc2C1c1cn2ccccc2n1 (stereo not drawn) and N#Cc1ncoc1C(=O)N1CCc2[nH]cnc2C1c1cn2ccccc2n1 (stereo not drawn) [listing 1 of 2 here] fall in the same range of AC50: 1 to 5 µM for the first, 1 to 5 µM for the second.

First: O=C(C1CC1(F)F)N1CCc2[nH]cnc2C1c1cn2ccccc2n1 (stereo not drawn) [listing 2 of 3 here]
Second: N#Cc1ncoc1C(=O)N1CCc2[nH]cnc2C1c1cn2ccccc2n1 (stereo not drawn) [listing 2 of 2 here]
The AC50 of the first is lower: 1 to 5 µM for the first, > 5 µM for the second.

First: O=C(C1CC1(F)F)N1CCc2[nH]cnc2C1c1cn2ccccc2n1 (stereo not drawn) [listing 3 of 3 here]
Second: Cc1ncoc1C(=O)N1CC2(CC2)c2[nH]cnc2C1c1cn2ccccc2n1 (stereo not drawn)
The AC50 of the first is higher: > 5 µM for the first, 1 to 5 µM for the second.

CC1CN(C(=O)c2nnc(N3CCN(C)CC3)o2)C(c2cc3ccccc3cn2)c2nc[nH]c21 (stereo not drawn) and C[C@H]1CN(C(=O)c2nnc(N3CC(F)C3)o2)[C@H](c2cc3ccccc3cn2)c2nc[nH]c21 (single isomer, unassigned) fall in the same range of AC50: 1 to 5 µM for the first, 1 to 5 µM for the second.

First: CC1CN(c2nnc(-c3ccccn3)o2)C(c2cc3ccccc3cn2)c2nc[nH]c21 (stereo not drawn)
Second: C[C@H]1CN(c2nnc(-c3ccccn3)o2)[C@@H](c2cc3ccccc3cn2)c2nc[nH]c21 (single isomer, unassigned)
The AC50 of the first is lower: 1 to 5 µM for the first, > 5 µM for the second.

First: O=C(C1CN(c2ccccn2)C1)N1CCc2[nH]cnc2C1c1cc2ccccc2cn1 (single isomer, unassigned)
Second: O=C(c1cnc(-c2ccccn2)o1)N1CCc2[nH]cnc2[C@@H]1c1cc2ccccc2nn1 (single isomer, unassigned)
The AC50 of the first is lower: 1 to 5 µM for the first, > 5 µM for the second.

CC(C)(O)c1ccc2c(C(=O)N3CCc4[nH]cnc4[C@H]3c3cc4ccccc4cn3)cnn2c1 (single isomer, unassigned) and CC(C)(O)c1ncc(C(=O)N2CCc3[nH]cnc3C2c2cc3ccccc3cn2)o1 (single isomer, unassigned) fall in the same range of AC50: 1 to 5 µM for the first, 1 to 5 µM for the second.

COCc1ncc(C(=O)N2CCc3[nH]cnc3[C@@H]2c2ccc3ccccc3n2)o1 (single isomer, unassigned) and COCc1ncc(C(=O)N2CCc3[nH]cnc3[C@@H]2c2ccc3ccccc3n2)s1 (single isomer, unassigned) fall in the same range of AC50: 1 to 5 µM for the first, 1 to 5 µM for the second.

First: Cc1nc(C(C)(C)O)oc1C(=O)N1CCc2[nH]cnc2[C@H]1c1cc2ccccc2cn1 (single isomer, unassigned)
Second: Cc1nc(N(C)C)oc1C(=O)N1CCc2[nH]cnc2[C@H]1c1ccc2ccccc2n1 (single isomer, unassigned)
The AC50 of the first is lower: 1 to 5 µM for the first, > 5 µM for the second.

O=C(Cc1coc(C(F)F)n1)N1CCc2nc[nH]c2[C@H]1c1cn2ccccc2n1 (single isomer, unassigned) and O=C(c1oc(-c2ccccn2)nc1C1CC1)N1CCc2nc[nH]c2[C@H]1c1cn2ccccc2n1 (single isomer, unassigned) cannot be ordered by AC50: > 5 µM for the first, > 5 µM for the second.

FC(F)c1nnc(N2CCc3[nH]cnc3[C@H]2c2ccc3ccccc3n2)o1 (single isomer, unassigned) and C[C@@H](O)c1nnc(C(=O)N2CCc3[nH]cnc3[C@H]2c2cc3ccccc3nn2)o1 (single isomer, unassigned) cannot be ordered by AC50: > 5 µM for the first, > 5 µM for the second.

First: C[C@H](O)c1nnc(C(=O)N2CCc3[nH]cnc3[C@H]2c2cc3ccccc3nn2)o1 (single isomer, unassigned)
Second: CC1CN(C(=O)c2nnc(NC3CC3)o2)C(c2cc3ccccc3cn2)c2nc[nH]c21 (single isomer, unassigned)
The AC50 of the first is lower: 1 to 5 µM for the first, > 5 µM for the second.

Cc1ncoc1C(=O)N1CC2(CC2)c2[nH]cnc2[C@H]1c1ccc2ccccc2n1 (single isomer, unassigned) and COCCNc1nnc(C(=O)N2C[C@@H](C)c3[nH]cnc3[C@H]2c2cc3ccccc3cn2)o1 (single isomer, unassigned) cannot be ordered by AC50: > 5 µM for the first, > 5 µM for the second.

same assay, conditions: A375 cells expressing human R408W PAH; 24 hrs compound incubation; 13C-Tyrosine by LC-MS; average where tested multiple times; read-out: AC50

Compared with Cc1nc(C(C)(C)O)oc1C(=O)N1CCc2[nH]cnc2[C@@H]1c1ccc2ccccc2n1 (single isomer, unassigned) [Example 14], CC(O)c1nc(Br)c(C(=O)N2CCc3[nH]cnc3[C@@H]2c2ccc3ccccc3n2)o1 (single isomer, unassigned) [Example 131] is lower in AC50: > 5 µM for the first, 1 to 5 µM for the second.

Compared with O=C(c1nnc(-c2cnn(CC(F)(F)F)c2)o1)N1CCc2[nH]cnc2[C@H]1c1ccc2ccccc2n1 (single isomer, unassigned) [Example 67], O=C(c1nnc(-c2cnn(CC(F)(F)F)c2)o1)N1CCc2[nH]cnc2[C@@H]1c1ccc2ccccc2n1 (single isomer, unassigned) [Example 68] is higher in AC50: 0.5 to 1 µM for the first, > 5 µM for the second.

First: CC(O)c1nc(Br)c(C(=O)N2CCc3[nH]cnc3[C@@H]2c2ccc3ccccc3n2)o1 (single isomer, unassigned) [Example 132]
Second: CC(O)c1nc(Br)c(C(=O)N2CCc3[nH]cnc3[C@H]2c2ccc3ccccc3n2)o1 (single isomer, unassigned) [Example 133]
The AC50 of the first is higher: 1 to 5 µM for the first, < 0.5 µM for the second.

Compared with CC(O)c1nc(Br)c(C(=O)N2CCc3[nH]cnc3[C@H]2c2ccc3ccccc3n2)o1 (single isomer, unassigned) [Example 134], CC(O)c1nc(Cl)c(C(=O)N2CCc3[nH]cnc3[C@@H]2c2ccc3ccccc3n2)o1 (single isomer, unassigned) [Example 135] is higher in AC50: < 0.5 µM for the first, > 5 µM for the second.

First: CC(O)c1nc(Cl)c(C(=O)N2CCc3[nH]cnc3[C@@H]2c2ccc3ccccc3n2)o1 (single isomer, unassigned) [Example 136]
Second: CC(O)c1nc(Cl)c(C(=O)N2CCc3[nH]cnc3[C@H]2c2ccc3ccccc3n2)o1 (single isomer, unassigned) [Example 137]
The AC50 of the first is higher: 1 to 5 µM for the first, < 0.5 µM for the second.

Going from CC(O)c1nc(Cl)c(C(=O)N2CCc3[nH]cnc3[C@H]2c2ccc3ccccc3n2)o1 (single isomer, unassigned) [Example 138] to CC(F)(F)c1ncc(C(=O)N2CCc3[nH]cnc3[C@@H]2c2cn3ccccc3n2)s1 (single isomer, unassigned) [Example 235], the AC50 rises from < 0.5 µM to > 5 µM.

CC(F)(F)c1ncc(C(=O)N2CCc3[nH]cnc3[C@H]2c2cn3ccccc3n2)s1 (single isomer, unassigned) [Example 236] and O=C(c1oc(-c2ccccn2)nc1C1CC1)N1CCCc2[nH]cnc2[C@H]1c1cc2ccccc2cn1 (single isomer, unassigned) [Example 379] fall in the same range of AC50: 1 to 5 µM for the first, 1 to 5 µM for the second.

First: O=C(c1oc(-c2ccccn2)nc1C1CC1)N1CCCc2[nH]cnc2[C@@H]1c1cc2ccccc2cn1 (single isomer, unassigned) [Example 380]
Second: C[C@H]1CN(C(=O)c2nnc(-c3ccccn3)o2)[C@H](c2cc3ccccc3cn2)c2nc[nH]c21 (single isomer, unassigned) [Example 385]
The AC50 of the first is higher: > 5 µM for the first, 0.5 to 1 µM for the second.

First: C[C@H]1CN(C(=O)c2nnc(-c3ccccn3)o2)[C@@H](c2cc3ccccc3cn2)c2nc[nH]c21 (single isomer, unassigned) [Example 386]
Second: C[C@@H]1CN(C(=O)c2nnc(-c3ccccn3)o2)[C@H](c2cc3ccccc3cn2)c2nc[nH]c21 (single isomer, unassigned) [Example 388]
The AC50 of the first is higher: > 5 µM for the first, 0.5 to 1 µM for the second.
